According to patent publication US8883135B2, “Crystalline form of a pyridyl-piperazinyl hepatitis C virus inhibitor” (Theravance Biopharma R&D IP, LLC, priority 2012, dated 2014):
pEC50: −log10 of the molar value.

What was measured:
[1] = Dynamic Moisture Sorption Assessment; format: physicochemical; settings: for deliquescence: exposed to up to about 90% relative humidity at room temperature; for change in solid form (powder diffraction pattern) after two sorption/desorption cycles: two DMS cycles, PXRD compared with the starting material
Experimental: Dynamic moisture sorption (DMS) measurements were performed for each crystalline form using a VTI atmospheric microbalance, SGA-100 system (VTI Corp., Hialeah, Fla. 33016). A weighed sample was used and the humidity was lowest possible value (close to 0% RH) at the start of the analysis. […] The DMS run was performed isothermally at 25° C.

[2] = test system: HCV replicon mutants genotype 1a Y93H, M28T, and Q30E; experiment: Replicon assays against resistant mutants (transient transfection, Huh-LUNET cells); format: cell-based; settings: Hepatitis C virus, read-out: pEC50 (converted)
Experimental: Potencies of test compounds against additional mutations of interest were determined using transient transfection assays. These mutants included genotype 1a Y93H, M28T, and Q30E. The mutation was first introduced into the parental plasmid by site-directed mutagenesis. The replicon plasmid was then linearized and in vitro transcribed to RNA. The RNA was used to transiently transfect Huh-LUNET cells (obtained from ReBLikon GmbH, Schriesheim, Germany) by electroporation, and the potencies of test compounds against the mutants were determined as previously described.

[3] = test system: HCV genotype 1b replicon cell line (Huh7 cell background); experiment: HCV Genotype 1b Replicon Assay; format: cell-based; settings: Hepatitis C virus, Huh-7, luciferase activity readout, 48 hours incubation
Description: The HCV genotype 1b replicon cell line was obtained from Apath LLC (Brooklyn, N.Y.) (APC144; Huh7 cell background). This subgenomic replicon contains the N-terminus of the HCV core protein fused to the neomycin-resistance selectable marker. The EMCV IRES lies downstream and drives expression of humanized Renilla luciferase fused to the non-structural proteins NS3-NS5B. This cell line was used to determine compound potency using the luciferase activity readout as a measurement of compound inhibition of replicon levels.
Cells were grown at 37° C. in a 5% CO2 humidified incubator in DMEM (Invitrogen) with 10% FBS (HyClone), 1×NEAA (Invitrogen), 1× Pen-Strep (Invitrogen), and 500 μg/mL G418 (Invitrogen). On day 1 of the assay, cells were plated at 10,000 cells/well in white 96-well tissue culture plates (Costar) in 200 μL media lacking G418. […] At the end of the incubation period, media and compound were removed from the plates and the luciferase activity was determined using Promega Renilla-Glo reagents.
To analyze the data, the luciferase activity was plotted vs. the compound concentration, and EC50 values were determined from a 4-parameter robust fit model with the GraphPad Prism software package (GraphPad Software, Inc., San Diego, Calif.). Results are expressed as the negative decadic logarithm of the EC50 value, pEC50. […]

[4] = test system: HCV replicon resistant mutants: genotype 1b L31V and Y93H; genotype 1a Q30R and L31V; experiment: Replicon Assays Against Resistant Mutants (stably transfected Huh7 cells); format: cell-based; settings: Hepatitis C virus, Huh-7, read-out: pEC50 (converted)
Experimental: To create replicon cells with resistant mutations of interest, the mutation was first introduced into the parental plasmid by site-directed mutagenesis. Mutations in genotype 1b included L31V and Y93H. Mutations in genotype 1a included Q30R and L31V. The replicon plasmid was then linearized and in vitro transcribed to RNA. The RNA was used to stably transfect Huh7 cells by electroporation, and new cell lines were selected with 500 μg/mL G418. Potencies of test compounds against these mutant cell lines were determined as previously described above for the HCV Genotype 1b and 1a replicon assays.

[5] = test system: HCV genotype 1a replicon cell line (Huh7.5 cell background); experiment: HCV Genotype 1a Replicon Assay; format: cell-based; settings: Hepatitis C virus, NS3-specific protease activity in lysates, 48 or 72 hours incubation
Experimental: The HCV genotype 1a replicon cell line was obtained from Apath LLC (APC89; Huh7.5 cell background). This subgenomic replicon contains the N-terminus of the HCV core protein fused to the neomycin-resistance selectable marker. The EMCV IRES lies downstream and drives expression of the non-structural proteins NS3-NS5B. Compound potencies were determined using the NS3-specific protease activity in lysates as a measurement of compound inhibition of replicon levels.
Cells were grown at 37° C. in a 5% CO2 humidified incubator in DMEM (Invitrogen) with 10% FBS (HyClone), 1×NEAA (Invitrogen), 1× Pen-Strep (Invitrogen), and 850 μg/mL G418 (Invitrogen). On day 1 of the assay, cells were plated at 15,000 cells/well in black 96-well tissue culture plates (Costar) in 200 μL media lacking G418. […]
To determine the NS3-specific protease activity in lysates, the cells were lysed at room temperature in 50 μL/well of 50 mM Hepes pH 7.5, 150 mM NaCl, 15% Glycerol, 0.15% Triton X-100, 10 mM DTT for 20 minutes with shaking. […] Protease activity was determined by measuring fluorescence (Excitation: 340 nm; Emission: 509 nm).
To analyze the data, the fluorescence was plotted vs. the compound concentration, and EC50 values were determined from a 4-parameter robust fit model using GraphPad Prism software.

[6] = humidity range of 2% to 90% relative humidity at room temperature

Compound	deliquescence [1]	weight gain (dynamic moisture sorption) [1, 6]	weight gain (dynamic moisture sorption) ([1]; humidity range of 2% to 90% relative humidity at room temperature, listed as Crystalline compound 1)	change in solid form (powder diffraction pattern) after two sorption/desorption cycles [1]	weight gain (dynamic moisture sorption) ([1]; at 90% relative humidity during the initial adsorption segment)	EC50 [2]	pEC50 [3]	EC50 [4]	pEC50 [5]
CNC(=O)N1C[C@@H](C)N(c2ccc(C(=O)Nc3ccc(-c4ccc(-c5c[nH]c([C@@H]6CCCN6C(=O)[C@@H](NC(=O)OC)C(C)C)n5)cc4)c(OC(F)(F)F)c3)cn2)C[C@@H]1C [crystalline compound 1, Crystalline ((S)-1-{(S)-2-[4-(4′-{[6-((2R,5S)-2,5-Dimethyl-4-methylcarbamoyl-piperazin-1-yl)-pyridine-3-carbonyl]-amino}-2′-trifluoromethoxy-biphenyl-4-yl)-1H-imidazol-2-yl]-pyrrolidine-1-carbonyl}-2-methyl-propyl)-carbamic acid methyl ester]	neither crystalline compound 1 nor the anhydrous and hydrate forms of the crystalline dihydrochloride salt of compound 1 is deliquescent	about 3%	≤ 3%	no change in form					
CNC(=O)N1C[C@@H](C)N(c2ccc(C(=O)Nc3ccc(-c4ccc(-c5c[nH]c([C@@H]6CCCN6C(=O)[C@@H](NC(=O)OC)C(C)C)n5)cc4)c(OC(F)(F)F)c3)cn2)C[C@@H]1C.Cl.Cl.O [monohydrate form, Crystalline ((S)-1-{(S)-2-[4-(4′-{[6-((2R,5S)-2,5-Dimethyl-4-methylcarbamoyl-piperazin-1-yl)-pyridine-3-carbonyl]-amino}-2′-trifluoromethoxy-biphenyl-4-yl)-1H-imidazol-2-yl]-pyrrolidine-1-carbonyl}-2-methyl-propyl)-carbamic acid methyl ester dihydrochloride Monohydrate Form]	neither crystalline compound 1 nor the anhydrous and hydrate forms of the crystalline dihydrochloride salt of compound 1 is deliquescent			no change in form	about 2%				
CNC(=O)N1C[C@@H](C)N(c2ccc(C(=O)Nc3ccc(-c4ccc(-c5c[nH]c([C@@H]6CCCN6C(=O)[C@@H](NC(=O)OC)C(C)C)n5)cc4)c(OC(F)(F)F)c3)cn2)C[C@@H]1C [Compound 1, ((S)-1-{(S)-2-[4-(4′-{[6-((2R,5S)-2,5-dimethyl-4-methylcarbamoyl-piperazin-1-yl)-pyridine-3-carbonyl]-amino}-2′-trifluoromethoxy-biphenyl-4-yl)-1H-imidazol-2-yl]-pyrrolidine-1-carbonyl}-2-methyl-propyl)-carbamic acid methyl ester]						≤ 10 nM	≥ 11.00	≤ 10 nM	≥ 10.00
Crystalline ((S)-1-{(S)-2-[4-(4′-{[6-((2R,5S)-2,5-Dimethyl-4-methylcarbamoyl-piperazin-1-yl)-pyridine-3-carbonyl]-amino}-2′-trifluoromethoxy-biphenyl-4-yl)-1H-imidazol-2-yl]-pyrrolidine-1-carbonyl}-2-methyl-propyl)-carbamic acid methyl ester dihydrochloride Anhydrous Form [anhydrous dihydrochloride salt]	neither crystalline compound 1 nor the anhydrous and hydrate forms of the crystalline dihydrochloride salt of compound 1 is deliquescent	about 0.8%		no change in form					
